According to US9534059B2, “TIKI inhibitors” (Children's Medical Center Corporation, priority 2012, dated 2017):
Substitutions are numbered along the chain they refer to. Numbers in names are those of the source. Active and inactive are the words of the source; unless stated, no cut-off is given here. Entries after “also recorded” stand apart in the source; their conditions may differ.

T1: TIKI2N (Homo sapiens, UniProt A6NFA1)
T1 construct: which is the extracellular domain of TIKI2 fused with a carboxyl FLAG tag and a 6×HIS tag; made in house; host or cells: HEK293T
T1 sequence (A6NFA1 20-486 limits assumed): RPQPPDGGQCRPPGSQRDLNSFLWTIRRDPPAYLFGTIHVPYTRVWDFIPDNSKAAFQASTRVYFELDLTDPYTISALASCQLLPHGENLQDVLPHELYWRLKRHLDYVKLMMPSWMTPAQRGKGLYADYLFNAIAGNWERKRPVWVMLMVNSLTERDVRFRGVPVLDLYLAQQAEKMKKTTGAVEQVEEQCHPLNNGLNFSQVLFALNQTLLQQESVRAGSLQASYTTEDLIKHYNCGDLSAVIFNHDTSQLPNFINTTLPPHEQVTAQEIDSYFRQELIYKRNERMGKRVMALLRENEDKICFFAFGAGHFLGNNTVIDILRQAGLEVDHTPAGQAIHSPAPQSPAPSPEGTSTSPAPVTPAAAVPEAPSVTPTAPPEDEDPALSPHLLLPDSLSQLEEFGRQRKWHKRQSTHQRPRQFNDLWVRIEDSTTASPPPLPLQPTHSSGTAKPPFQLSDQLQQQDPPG

B1: H58A: alanine mutation in Human TIKI2N construct (no transmembrane domain) (protein, UniProt A6NFA1 20-494, looked up, variant H58A)
extracellular domain: RPQPPDGGQCRPPGSQRDLNSFLWTIRRDPPAYLFGTIAVPYTRVWDFIPDNSKAAFQASTRVYFELDLTDPYTISALASCQLLPHGENLQDVLPHELYWRLKRHLDYVKLMMPSWMTPAQRGKGLYADYLFNAIAGNWERKRPVWVMLMVNSLTERDVRFRGVPVLDLYLAQQAEKMKKTTGAVEQVEEQCHPLNNGLNFSQVLFALNQTLLQQESVRAGSLQASYTTEDLIKHYNCGDLSAVIFNHDTSQLPNFINTTLPPHEQVTAQEIDSYFRQELIYKRNERMGKRVMALLRENEDKICFFAFGAGHFLGNNTVIDILRQAGLEVDHTPAGQAIHSPAPQSPAPSPEGTSTSPAPVTPAAAVPEAPSVTPTAPPEDEDPALSPHLLLPDSLSQLEEFGRQRKWHKRQSTHQRPRQFNDLWVRIEDSTTASPPPLPLQPTHSSGTAKPPFQLSDQLQQQDPPGPASSSAPT
modifications: extracellular domain
B2: R303A: alanine mutation in Human TIKI2N construct (no transmembrane domain) (protein, UniProt A6NFA1 20-494, looked up, variant R303A)
extracellular domain: B1 extracellular domain with A39H, R284A
modifications: extracellular domain
B3: E205A: alanine mutation in Human TIKI2N construct (no transmembrane domain) (protein, UniProt A6NFA1 20-494, looked up, variant E205A)
extracellular domain: B1 extracellular domain with A39H, E186A
modifications: extracellular domain
B4: E85A: alanine mutation in Human TIKI2N construct (no transmembrane domain) (protein, UniProt A6NFA1 20-494, looked up, variant E85A)
extracellular domain: B1 extracellular domain with A39H, E66A
modifications: extracellular domain
B5: T56A: alanine mutation in Human TIKI2N construct (no transmembrane domain) (protein, UniProt A6NFA1 20-494, looked up, variant T56A)
extracellular domain: B1 extracellular domain with T37A, A39H
modifications: extracellular domain
B6: H331A: alanine mutation in Human TIKI2N construct (no transmembrane domain) (protein, UniProt A6NFA1 20-494, looked up, variant H331A)
extracellular domain: B1 extracellular domain with A39H, H312A
modifications: extracellular domain

How the values were obtained:
TIKI2N = biological target: T1, TIKI2N; experiment: In vitro treatment of HA-Wnt3a with purified TIKI2N (cleavage, Western blotting); format: biochemical; settings: for TIKI2N activity (cleavage of HA-Wnt3a) in the presence of protease inhibitor / Effects of divalent metals on TIKI2N activity: in vitro; for TIKI2N activity (cleavage of HA-Wnt3a) in the presence of protease inhibitor: purified TIKI2N + recombinant HA-Wnt3a, Western blotting; for Effects of divalent metals on TIKI2N activity: 50 μM of each divalent metal ion, 2 hrs; for Rescue of TIKI2N activity with divalent metals after inhibition with 1,10-Phenanthroline: 20 μM 1,10-Phenanthroline 1 hr, then 50 μM metal ion for another 2 hrs
Protocol: HEK293T cells in 100 mm dishes were transfected with TIKI2N-, KRM2N-, TIKI2NΔ-FLAG-6×HIS (“6×HIS” disclosed as SEQ ID NO: 57) or HA-Wnt3a vectors. The medium containing transfection mixture was replaced with 6 ml fresh medium 24 hrs post-transfection, and incubated for another 24 hrs. To purify TIKI2N, KRM2N and TIKI2NΔ, cells were washed with PBS and lysed in ice-cold PBS containing 0.2% NP-40, 20 mM imidazole and the protease inhibitor cocktail (Roche) to make whole cell lysates (WCL). WCL was mixed with Ni-NTA agarose beads (QIAGEN) and incubated at 4° C. with rotation for 1 hr. The beads were pelleted by centrifugation and washed four times with PBS/0.2% NP-40 and the FLAG-6×HIS (“6×HIS” disclosed as SEQ ID NO: 57) fusion proteins were eluted with PBS/0.2% NP-40 containing 100 mM imidazole. The elute was diluted 3 time with PBS/0.2% NP-40 and were mixed with FLAG M2 agarose beads (Sigma). Following 2 hrs incubation with rotation at 4° C., the beads were pelleted by centrifugation and washed three times with PBS/0.2% NP-40 and one time with HEPES buffer (50 mM HEPES (pH 7.4), 100 mM NaCl, 0.2% NP-40). The FLAG fusion proteins were eluted with HEPES buffer containing 50 μg/ml 3×FLAG peptide. To purify HA-Wnt3a, the conditioned medium (CM) was collected and was cleared by centrifugation and 0.2% NP-40 was added. The CM was mixed with anti-HA agarose beads (Sigma). Following 2 hrs incubation with rotation at 4° C., the beads were pelleted by centrifugation and washed three times with PBS/0.2% NP-40 and one time with HEPES buffer (50 mM HEPES (pH 7.4), 100 mM NaCl, 0.2% NP-40). The HA-Wnt3a protein was eluted with HEPES buffer containing 300 μg/ml HA peptide.
About 50 ng purified TIKI2N, KRM2N, or TIKI2NΔ protein was mixed with 10 ng purified HA-Wnt3a in a total volume of 10 μl HEPES buffer (50 mM HEPES (pH 7.4), 100 mM NaCl, 0.2% NP-40) and incubated at 30° C. To examine TIKI2N activity in different pH conditions, the following buffer was used instead of HEPES, 100 mM sodium acetate (pH 5.5), 100 mM Tris-HCl (pH 6, 7, 8, 9) or 50 mM CAPS (pH 10, 11). The reaction product was analyzed by SDS-PAGE and Western blotting with anti-HA and anti-Wnt3a antibodies. For mass spectrometric analysis, 200 ng of recombinant Wnt3a (from Stem RD) was incubated with about 500 ng of TIKIN or KRM2N overnight at 30° C. and separated by SDS-PAGE. The Wnt3a bands were cut, trypsin digested and subjected to mass spectrometric analyses.
TIKI protease activity was characterized under in vitro conditions. […] Different protease inhibitors were applied to survey which protease family TIKI might belong to. […] Metalloproteases are defined by their dependence on divalent metals as co-factors (Barrett, 1998).

[1] = test system: Tiki1 and Dkk1 expression; experiment: RT-PCR of Tiki1 and Dkk1 expression in treated whole embryos (FIG. 2M); format: in vivo, Xenopus
Protocol: (M) Tiki1 expression is regulated by maternal Wnt signaling. Whole embryos were used for LiCl or UV treatment. 20 or 40 pg of Xwnt8 mRNA was injected into the ventral marginal zone (VMZ) at 4 to 8-cell stage and the VMZ was dissected at stage 10.5 for RT-PCR. ΔNTCF mRNA (1 or 2 ng) was injected into the dorsal marginal zone (DMZ) at 4 to 8-cell stage and the DMZ was dissected at stage 10.5 for RT-PCR. Con: control.
Organizer formation requires maternal Wnt/β-catenin signaling (De Robertis and Kuroda, 2004; Harland and Gerhart, 1997), which is necessary and sufficient for Tiki1 (and Dkk1) expression. Ectopic Xwnt8 induced Tiki1 and Dkk1 expression ventrally, whereas a dominant negative TCF (T cell factor, a DNA-binding transcription factor that mediates beta-catenin signaling), ΔNTCF (Molenaar et al., 1996), suppressed the endogenous Tiki1 and Dkk1 dorsal expression (FIG. 2M). Furthermore LiCl, which stabilizes β-catenin thus dorsalizes embryos, induced Tiki1 and Dkk1 expression, while ultraviolet irradiation, which through microtubule disruption causes defective maternal Wnt signaling thus ventralizes embryos (Harland and Gerhart, 1997), suppressed Tiki1 and Dkk1 expression (FIG. 2M).

Wnt3a = experiment: TOPFLASH assay of TIKI2N mutants co-transfected with Wnt3a in HEK293T cells; format: cell-based, human; settings: 5, 2.5, 1.25 and 0.612 ng plasmid with Wnt3a 20 ng
Protocol: FIG. 8B. Bar graph showing the results of a TOPFLASH assay testing TIKI2 mutations in Human TIKI2N construct (no transmembrane domain). Decreasing doses of 5, 2.5, 1.25 and 0.612 ng of the indicated TIKI2N expression plasmid were cotransfected with Wnt3a (20 ng) in HEK293T cells.
HEK293T, HeLa, L and L-Wnt3a cells (from ATCC) were maintained in Dulbecco's modified Eagle's medium (DMEM; Invitrogen) supplemented with 10% fetal bovine serum (FBS) and 1% penicillin-streptomycin-glutamine (Invitrogen). Lipofectamine 2000 (Invitrogen) or Fugene6 (Roche) was used for all cell transfections. L and L-Wnt3a cells that stably express TIKI2 were generated by infecting cells with retroviruses and selected by puromycin. L cells stably expressing Wnt3a(FLAG) were established by transfecting L cells with a Wnt3a(FLAG) expressing vector and selected with neomycine. L cells stably expressing both Wnt3a(FLAG) and TIKI2 were also generated. TOPFLASH reporter assay was performed as previously described (MacDonald et al., 2008).
A Wnt-responsive reporter (TOP-FLASH) assay was performed to test mutations at T56A, H58A, E85A, E205A, H256A, R303A, H331A in a Human TIKI2N construct (no transmembrane domain). Decreasing doses of 5, 2.5, 1.25 and 0.612 ng of the indicated TIKI2N expression plasmid were co-transfected with Wnt3a (20 ng) in HEK293T cells. […] T56A, H256A, and R303A had no effect on TIM activity, and so are likely to be less important sites for function.

Row | Molecule | Effects of divalent metals on TIKI2N activity (TIKI2N) | TIKI activity of TIKI2N mutants (inhibition of Wnt3a-induced TOPFLASH) (Wnt3a) | other results
1 | O=C(O)CN(CCN(CC(=O)O)CC(=O)O)CC(=O)O [EDTA] | – | – | TIKI2N activity (cleavage of HA-Wnt3a) in the presence of protease inhibitor (TIKI2N): inhibited TIKI2N activity; also recorded: inhibited, albeit more mildly
2 | [Zn+2] [Zn^2+] | inhibited TIKI2N activity | – | –
3 | [Cu+2] [Cu^2+] | inhibited TIKI2N activity | – | –
4 | c1cnc2c(c1)ccc1cccnc12 [1,10-phenanthroline] | – | – | TIKI2N activity (cleavage of HA-Wnt3a) in the presence of protease inhibitor (TIKI2N): potently inhibited; TIKI2N activity (cleavage of HA-Wnt3a) in the presence of protease inhibitor (TIKI2N; listed as 1, 10-Phenanthroline): sensitive
5 | [Mn+2] [Mn^2+] | enhanced | – | Rescue of TIKI2N activity with divalent metals after inhibition with 1,10-Phenanthroline (TIKI2N): rescued; also recorded: fully restored
6 | [Ni+2] [Ni^2+] | inhibited TIKI2N activity | – | –
7 | [Co+2] [Co^2+] | enhanced | – | Rescue of TIKI2N activity with divalent metals after inhibition with 1,10-Phenanthroline (TIKI2N): rescued; also recorded: fully restored
8 | [Cl-].[Li+] [LiCl] | – | – | Tiki1 and Dkk1 expression [1]: induced
9 | CC(C)C[C@H](NC(=O)[C@@H](O)[C@H](N)Cc1ccccc1)C(=O)O [Bestatin] | – | – | TIKI2N activity (cleavage of HA-Wnt3a) in the presence of protease inhibitor (TIKI2N): not
10 | B1 | – | inactive | –
11 | B2 | – | no effect | –
12 | B3 | – | inactive | –
13 | B4 | – | inactive | –
14 | B5 | – | no effect | –
15 | B6 | – | inactive | –
